Assay results from ChEMBL document CHEMBL2046310, “Synthesis and biological evaluation of novel 4β-(1,3,4-oxadiazole-2-amino)-podophyllotoxin derivatives” (Bioorg Med Chem Lett, 2012).
The source made the active and inactive calls. No cut-off for these calls is given here.

Assays:
DU-145 = assay: Cytotoxicity against human DU145 cells after 72 hrs by MTT assay; assay type: functional, cell-based; settings: DU-145, 72 h
SGC-7901 = assay: Cytotoxicity against human SGC7901 cells after 72 hrs by MTT assay; assay type: functional, cell-based; settings: SGC-7901, 72 h
A549 = assay: Cytotoxicity against human A549 cells after 72 hrs by MTT assay; assay type: functional, cell-based; settings: A549, 72 h
SH-SY5Y = assay: Cytotoxicity against human SH-SY5Y cells after 72 hrs by MTT assay; assay type: functional, cell-based
L929 = assay: Cytotoxicity against mouse L929 cells after 72 hrs by MTT assay; assay type: cell-based; settings: L929, 72 h
Vero = assay: Cytotoxicity against african green monkey Vero cells after 72 hrs by MTT assay; assay type: cell-based; settings: Chlorocebus sabaeus
HepG2 [1] = assay: cells; settings: Homo sapiens, HepG2, 72 h
Description: (§1) Cytotoxicity against human HepG2 cells after 72 hrs by MTT assay

HeLa = assay: cells; settings: Homo sapiens, 72 h
Description: Cytotoxicity against human HeLa cells after 72 hrs by MTT assay

HepG2 [2] = assay: Cytotoxicity against human HepG2 cells by MTT assay; assay type: functional, cell-based; settings: TDE = time-dependent effect
HepG2 [3] = assay: Cell cycle arrest in human HepG2 cells assessed as accumulation at S phase after 48 hrs by propidium iodide staining-based flow cytometric analysis; assay type: functional
HepG2 [4] = assay: Cell cycle arrest in human HepG2 cells assessed as accumulation at subG1 after 48 hrs by propidium iodide staining-based flow cytometric analysis; assay type: functional
HepG2 [5] = assay: Induction of apoptosis in human HepG2 cells assessed as early apoptotic cells at 0.25 uM after 48 hrs by annexinV/propidium iodide staining-based flow cytometric analysis (reference value: 0.47%); assay type: functional
HepG2 [6] = assay: Induction of apoptosis in human HepG2 cells assessed as late apoptotic to necrotic cells at 0.25 uM after 48 hrs by annexinV/propidium iodide staining-based flow cytometric analysis (reference value: 1.61%); assay type: functional
HepG2 [7] = assay: Induction of apoptosis in human HepG2 cells assessed as early apoptotic cells at 0.5 uM after 48 hrs by annexinV/propidium iodide staining-based flow cytometric analysis (reference value: 0.47%); assay type: functional
HepG2 [8] = assay: Induction of apoptosis in human HepG2 cells assessed as late apoptotic to necrotic cells at 0.5 uM after 48 hrs by annexinV/propidium iodide staining-based flow cytometric analysis (reference value: 1.61%); assay type: functional
HepG2 [9] = assay: Induction of apoptosis in human HepG2 cells assessed as early apoptotic cells at 1 uM after 48 hrs by annexinV/propidium iodide staining-based flow cytometric analysis (reference value: 0.47%); assay type: functional
HepG2 [10] = assay: Induction of apoptosis in human HepG2 cells assessed as late apoptotic to necrotic cells at 1 uM after 48 hrs by annexinV/propidium iodide staining-based flow cytometric analysis (reference value: 1.61%); assay type: functional
HepG2 [11] = assay: Induction of apoptosis in human HepG2 cells assessed as early apoptotic cells at 2 uM after 48 hrs by annexinV/propidium iodide staining-based flow cytometric analysis (reference value: 0.47%); assay type: functional
HepG2 [12] = assay: Induction of apoptosis in human HepG2 cells assessed as late apoptotic to necrotic cells at 2 uM after 48 hrs by annexinV/propidium iodide staining-based flow cytometric analysis (reference value: 1.61%); assay type: functional
HepG2 [13] = assay: Induction of apoptosis in human HepG2 cells assessed as […] of nuclear fragment at 0.25 to 2 uM after 48 hrs by Hoechst staining-based microscopic analysis; assay type: functional, cell-based
HepG2 [14] = assay: Induction of apoptosis in human HepG2 cells assessed as appearance of apoptotic bodies at 0.25 to 2 uM after 48 hrs by Hoechst staining-based microscopic analysis; assay type: functional, cell-based
HepG2 [15] = assay: Inhibition of DNA topoisomerase 2beta mRNA expression in human HepG2 cells at 0.5 to 8 uM after 6 hrs by RT-PCR analysis; assay type: functional, cell-based
HepG2 [16] = assay: Inhibition of DNA topoisomerase 2alpha protein expression in human HepG2 cells at 0.5 to 1 uM after 48 hrs by Western blot analysis; assay type: functional, cell-based
HepG2 [17] = settings: Homo sapiens
Description: as §1

Compound	IC50 (DU-145) [µM]	IC50 (SGC-7901; read-out: IC50) [µM]	IC50 (A549) [µM]	IC50 (SH-SY5Y) [µM]	IC50 (L929) [µM]	IC50 (Vero) [µM]	IC50 (HepG2 [1]) [µM]	IC50 (HeLa) [µM]	also measured
COc1cc([C@@H]2c3cc4c(cc3[C@@H](Nc3nnc(-c5cccs5)o3)[C@H]3COC(=O)[C@H]23)OCO4)cc(OC)c1OC	> 100	56.6	> 100	20	70.9	> 100	38.8	42.5	–
COc1ccc(-c2nnc(N[C@@H]3c4cc5c(cc4[C@@H](c4cc(OC)c(OC)c(OC)c4)[C@H]4C(=O)OC[C@@H]43)OCO5)o2)cc1	76.1	> 100	53.7	7.39	18.2	7.43	27.9	17.7	–
COc1cc([C@@H]2c3cc4c(cc3[C@@H](Nc3nnc(C)o3)[C@H]3COC(=O)[C@H]23)OCO4)cc(OC)c1OC	> 100	38.1	> 100	14.7	19.6	5.49	1.51	2.68	inhibition (HepG2 [2]): tde; Activity (HepG2 [3]): Dose-dependent effect; Activity (HepG2 [4]): Dose-dependent effect; Activity (HepG2 [5]): 0.62%; Activity (HepG2 [6]): 1.31%; Activity (HepG2 [7]): 1.45%; Activity (HepG2 [8]): 2.77%; Activity (HepG2 [9]): 8.03%; Activity (HepG2 [10]): 9.51%; Activity (HepG2 [11]): 20.68%; Activity (HepG2 [12]): 30.27%; Activity (HepG2 [13]): Active; Activity (HepG2 [14]): Active; inhibition (HepG2 [15]): Active; inhibition (HepG2 [16]): Active; inhibition (HepG2 [17]): Dose-dependent effect
COc1cc([C@@H]2c3cc4c(cc3[C@@H](Nc3nnco3)[C@H]3COC(=O)[C@H]23)OCO4)cc(OC)c1OC	11.3	> 100	> 100	25.8	43.3	15.4	11.8	> 100	–
O=c1[nH]cc(F)c(=O)[nH]1 [FLUOROURACIL]	12.3	–	–	1.09	1.38	> 100	32.2	16	IC50 (SGC-7901): 14.5 µM
COc1cc([C@@H]2c3cc4c(cc3[C@@H](Nc3nnc(C)o3)[C@H]3COC(=O)[C@H]23)OCO4)cc(OC)c1O	60.6	9.76	> 100	4.61	4.82	46.1	17.9	18.8	–
COc1cc([C@@H]2c3cc4c(cc3[C@@H](O[C@@H]3O[C@@H]5CO[C@@H](C)O[C@H]5[C@H](O)[C@H]3O)[C@H]3COC(=O)[C@H]23)OCO4)cc(OC)c1O [ETOPOSIDE]	64.3	12.1	10.1	5.37	1	31.1	5.48	96.3	–
COc1cc([C@@H]2c3cc4c(cc3[C@@H](Nc3nnc(-c5ccncc5)o3)[C@H]3COC(=O)[C@H]23)OCO4)cc(OC)c1OC	> 100	> 100	> 100	41.5	20.5	> 100	96.6	> 100	–
COc1cc([C@@H]2c3cc4c(cc3[C@@H](Nc3nnc(-c5ccco5)o3)[C@H]3COC(=O)[C@H]23)OCO4)cc(OC)c1OC	35.4	–	69.2	29.5	> 100	> 100	38.8	58.9	–
COc1cc([C@@H]2c3cc4c(cc3[C@H](O)[C@H]3COC(=O)[C@H]23)OCO4)cc(OC)c1OC [PODOFILOX]	> 100	2.95	13.6	2.54	1.37	1.78	2.27	7.58	–
COc1cc([C@@H]2c3cc4c(cc3[C@@H](Nc3nnc(-c5ccccc5)o3)[C@H]3COC(=O)[C@H]23)OCO4)cc(OC)c1OC	> 100	> 100	–	26.9	> 100	> 100	74.2	85.3	–
COc1cc([C@@H]2c3cc4c(cc3[C@@H](Nc3nnc(-c5cccnc5)o3)[C@H]3COC(=O)[C@H]23)OCO4)cc(OC)c1OC	> 100	> 100	> 100	22.5	54.6	> 100	72.8	> 100	–
COc1cc([C@@H]2c3cc4c(cc3[C@@H](Nc3nnc(-c5ccc([N+](=O)[O-])cc5)o3)[C@H]3COC(=O)[C@H]23)OCO4)cc(OC)c1OC	> 100	> 100	–	16.6	> 100	–	> 100	> 100	–
